{"source": "patent US6727231B1", "about": "“Uridine therapy for patients with elevated purine levels” (Repligen Corporation, priority 2000, dated 2004)", "key": {"[1]": {"conditions": "cited from earlier work"}, "[2]": {"tested_on": "hypouricosuric PDD patients", "conditions": "single oral doses of 1,000 mg/kg/day; cited from earlier work"}, "[3]": {"tested_on": "Patient having increased uric acid in urine and diagnosed with symptoms of PDD", "assay": "Treatment of Patient 1, who had increased uric acid in urine and was diagnosed with symptoms of PDD", "assay_type": "in vivo, human", "description": "Patient 1 was diagnosed with PDD. […], the patient's urine was analyzed, and the urine level of uric acid was 18.1 mg/kg/day. The normal level of uric acid in normal patients at age nine is 8.3+/−2.0 mg/kg/day. The uric acid level in the urine gradually declined to approximately normal levels, however the symptoms of PDD remained.\n[…], Patient 1 was treated with a variety of drugs and exercise- and stress-reducing regimens. […] The exercise- and stress-reducing regimen helped in some respects, because Patient 1 was often fatigued. In addition, the low purine diet was continued at times along with vitamin B6 and magnesium. Over these many years, Patient 1 had varying levels of rather minor improvements in their symptoms in response to these and other attempted therapies.\nPatient 1 began use of uridine, with an oral dosage of approximately 50 mg/kilogram of body weight per day. […] In particular, Patient 1 tried varying dosages of uridine up to 1000 mg/kg/day."}, "[4]": {"conditions": "cited from earlier work", "remark": "listed apart in the source"}, "hyperuricosuric patients": {"tested_on": "hyperuricosuric patients", "conditions": "some of these patients; cited from earlier work"}, "[5]": {"conditions": "Patient 1, oral uridine, comparative narrative data against no uridine"}}, "note": "Entries after “also recorded” stand apart in the source; their conditions may differ."}
{"smiles": "O=c1ccn([C@@H]2O[C@H](CO)[C@@H](O)[C@H]2O)c(=O)[nH]1", "note": "[uridine]", "values": [{"measurement": "Normal plasma concentration of uridine", "setting": "[1]", "result": "2 to 10", "unit": "µM"}, {"measurement": "Effect on symptoms in hypouricosuric PDD patients", "setting": "[2]", "result": "reduce the symptoms"}, {"measurement": "Improvements upon cessation of uridine therapy", "setting": "[3]; Patient 1", "result": "declined or regressed"}, {"measurement": "Neurological and neuromuscular symptoms (autistic disorder and ataxia) upon administration", "setting": "[3]; Patient 1", "result": "improved dramatically"}, {"measurement": "Fine motor skills with uridine", "setting": "[3]; [5]", "result": "a. Able to use a screwdriver"}, {"measurement": "Gross motor skills with uridine", "setting": "[3]; [5]", "result": "d. Hugs normally-finds it easier; also recorded: e. Much less exhaustion and pain; also recorded: b. Does not crash into furniture,"}, {"measurement": "Speech and language with uridine", "setting": "[3]; [5]", "result": "b. Very quick to understand jokes,; also recorded: e. Usually makes eye contact"}, {"measurement": "Benefit at this dosage of uridine", "setting": "[3]; Patient 1, oral, 150 mg/kg/day", "result": "rapid benefits"}, {"measurement": "Dosage dependence of improvements", "setting": "[3]; Patient 1, varying dosages up to 1000 mg/kg/day", "result": "The higher dosages gave the most improved results"}, {"measurement": "Adverse effect at higher dosages", "setting": "[4]; dosages higher than 1000 mg/kg/day, some patients", "result": "mild diarrhea"}, {"measurement": "Toxic effects", "setting": "[4]; dosages of up to 1000 mg/kg/day, pure uridine", "result": "no known toxic effects"}]}
{"smiles": "C[C@H](N)Cc1ccccc1.C[C@H](N)Cc1ccccc1.O=S(=O)(O)O", "note": "[Dexedrine®, reference compound]", "values": [{"measurement": "Effect of earlier drug treatment on the patient's condition", "setting": "[3]; Patient", "result": "little success or worsening of their condition"}]}
{"smiles": "O=C(CCCN1CCC(O)(c2ccc(Cl)cc2)CC1)c1ccc(F)cc1", "note": "[Haldol®, reference compound]", "values": [{"measurement": "Effect of earlier drug treatment on the patient's condition", "setting": "[3]; Patient 1, donor alpha", "result": "little success or worsening of their condition"}]}
{"smiles": "COC(=O)C(c1ccccc1)C1CCCCN1.Cl", "note": "(stereo not drawn) [Ritalin®, reference compound]", "values": [{"measurement": "Effect of earlier drug treatment on the patient's condition", "setting": "[3]; Patient", "result": "little success or worsening of their condition"}]}
{"smiles": "Oc1ncnc2[nH]ncc12", "note": "[allopurinol]", "values": [{"measurement": "Benefit in patients with hyperuricosuria", "setting": "hyperuricosuric patients", "result": "benefited"}]}
